Converted amounts (≈) assume the structure as drawn. Where two headings read alike, the source gives them in different places.
Assays:
MCF-7 (breast) cells = assay: Antiproliferative sulforhodamine B assay, MCF-7; format: cell-based; details: Homo sapiens, MCF7, MCF-7 mammary, 48 h treatment, SRB; for IC100: read-out: Total growth inhibition (TGI)
Experimental: (§1) The in vitro antiproliferative activity of populene analogues 2a–e and 3a–e was investigated toward nine human tumor cell lines [CNS (U251), breast (MCF-7), ovarian (NCI-ADR/RES, OVCAR-03), renal (786-0), non-small cell lung (NCI-H460), prostate (PC-3), colon (HT-29) and leukemia (k-562)] and one human normal cell line (HaCat, human keratinocytes). The populene D analogues were tested at concentrations between 0.25 and 250 µg/mL and doxorubicin (DOX 0.025–25 µg/mL) was used as positive control. […] To analyze the GI50 parameter, mean log GI50 was calculated by conversion of the GI50 values for each tumor cell line tested (not including the normal cell line HaCat) against a test compound and then these values were averaged.
(§2) Stock cultures were grown in 5 mL of RPMI 1640 (GIBCO BRL, Life Technologies) supplemented with 5% of fetal bovine serum. Penicillin:streptomycin (1,000 μg mL^−1:1,000 UI mL^‑1, 1 mL L^−1) was added to the experimental cultures.
(§3) Afterwards cells were fixed with 50% trichloroacetic acid and cell proliferation determined by spectrophotometric quantification (540 nm) of cellular protein content using sulforhodamine B assay[20]. Doxorubicin (0.025–25 mg/mL) was used as positive control. Three measurements were obtained at the beginning of incubation (time zero, T0) and 48 h post-incubation for compound-free (C) and tested (T) cells. Cell proliferation was determined according to the equation 100 × [(T − T0)/C − T0], for T0 < T ≤ C, and 100 × [(T − T0)/T0], for T ≤ T0 and a concentration-response curve for each cell line was plotted and, from these curves, GI50 (concentration causing 50% growth inhibition) and TGI (concentration that promotes total growth inhibition) were determined by means of non-linear regression analysis using software ORIGIN 8.0 (OriginLab Corporation) [20, 21] The average activity (mean of log GI50) of each compound tested was also determined using MS Excel software.

PC-3 (prostate) cells = assay: Antiproliferative sulforhodamine B assay, PC-3; format: cell-based; details: Homo sapiens, Prostate cell, 48 h treatment, SRB; for IC100: read-out: Total growth inhibition (TGI)
Experimental: (§4) The populene D analogues were tested at concentrations between 0.25 and 250 µg/mL and doxorubicin (DOX 0.025–25 µg/mL) was used as positive control. […] To analyze the GI50 parameter, mean log GI50 was calculated by conversion of the GI50 values for each tumor cell line tested (not including the normal cell line HaCat) against a test compound and then these values were averaged.
as §2, §3

U251 (glioma) cells = assay: Antiproliferative sulforhodamine B assay, U251; format: cell-based; details: Homo sapiens, U-251, 48 h treatment, SRB; for IC100: read-out: Total growth inhibition (TGI)
Experimental: as §1, §2, §3

HT-29 (colon) cells = assay: Antiproliferative sulforhodamine B assay, HT-29; format: cell-based; details: Homo sapiens, 48 h treatment, SRB; for IC100: read-out: Total growth inhibition (TGI)
Experimental: as §4, §2, §3

[1] = test system: nine human tumor cell lines; assay: Average antiproliferative activity over the tumor cell line panel (NCI criteria); format: cell-based; details: for GI50: Homo sapiens, 48 h; for Cytostatic activity classified in words by NCI criteria on mean logGI50: weak 1.1-1.5, moderate 0-1.1, potent <0, inactive >1.5
Experimental: as §1
(§5) Cells in 96-well plates (100 μL cells/well) were exposed to various concentrations of compounds 2a–d and 3a–d diluted in DMSO (0.25, 2.5, 25 and 250 μg/mL) at 37 °C, 5% of CO2 for 48 h. […] Afterwards cells were fixed with 50% trichloroacetic acid and cell proliferation determined by spectrophotometric quantification (540 nm) of cellular protein content using sulforhodamine B assay[20]. Doxorubicin (0.025–25 mg/mL) was used as positive control. Three measurements were obtained at the beginning of incubation (time zero, T0) and 48 h post-incubation for compound-free (C) and tested (T) cells. Cell proliferation was determined according to the equation 100 × [(T − T0)/C − T0], for T0 < T ≤ C, and 100 × [(T − T0)/T0], for T ≤ T0 and a concentration-response curve for each cell line was plotted and, from these curves, GI50 (concentration causing 50% growth inhibition) and TGI (concentration that promotes total growth inhibition) were determined by means of non-linear regression analysis using software ORIGIN 8.0 (OriginLab Corporation) [20, 21] The average activity (mean of log GI50) of each compound tested was also determined using MS Excel software.

[2] = test system: NCI-ADR/RES (ovarian expressing phenotype multiple drugs resistance) cells; assay: Antiproliferative sulforhodamine B assay, NCI-ADR/RES; format: cell-based; details: Homo sapiens, NCI-ADR/RES drug resistant ovary, 48 h treatment, SRB; for IC100: read-out: Total growth inhibition (TGI)
Experimental: as §1, §2, §3

K-562 (leukemia) cells = assay: Antiproliferative sulforhodamine B assay, K-562; format: cell-based; details: Homo sapiens, K562, 48 h treatment, SRB; for IC100: read-out: Total growth inhibition (TGI)
Experimental: as §1, §5

[3] = test system: HaCat (immortalized human keratinocytes); assay: Antiproliferative sulforhodamine B assay, HaCat normal cell line; format: cell-based; details: 48 h treatment, SRB
Experimental: as §1, §2, §3

[4] = as above; format: cell-based, human; details: human; HaCat normal immortalized keratinocytes, 48 h treatment, SRB
Experimental: as §1, §2, §3

OVCAR-3 (ovarian) cells = assay: Antiproliferative sulforhodamine B assay, OVCAR-3; format: cell-based; details: Homo sapiens, OVCAR-3 ovary, 48 h treatment, SRB; for IC100: read-out: Total growth inhibition (TGI)
Experimental: as §4, §2, §3

786-0 (renal) cells = assay: Antiproliferative sulforhodamine B assay, 786-0; format: cell-based; details: Homo sapiens, 786-0 kidney, 48 h treatment, SRB; for IC100: read-out: Total growth inhibition (TGI)
Experimental: as §1, §2, §3

[5] = test system: NCI-H460 (lung, non-small cells) cells; assay: Antiproliferative sulforhodamine B assay, NCI-H460
Experimental: as §4, §2, §3

[6] = average of logGI50 (GI50 in μg/mL) over tumor cell lines tested, not including HaCat, read-out: Mean logGI50 (converted)
[7] = class symbol by NCI's criteria on mean logGI50, read-out: Mean logGI50 activity class (NCI's criteria)

| SMILES | GI50 (MCF-7 (breast) cells) [µg/mL] | IC100 (MCF-7 (breast) cells) [µg/mL] | GI50 (PC-3 (prostate) cells) [µg/mL] | IC100 (PC-3 (prostate) cells) [µg/mL] | GI50 (U251 (glioma) cells) [µg/mL] | IC100 (U251 (glioma) cells) [µg/mL] | GI50 (HT-29 (colon) cells) [µg/mL] | IC100 (HT-29 (colon) cells) [µg/mL] | GI50 [1, 6] [µg/mL] | GI50 [1, 7] [µg/mL] | GI50 [2] [µg/mL] | IC100 [2] [µg/mL] | GI50 (K-562 (leukemia) cells) [µg/mL] | IC100 (K-562 (leukemia) cells) [µg/mL] | Total growth inhibition (TGI) [3] [µg/mL] | GI50 at 48 h [4] [µg/mL] | GI50 (OVCAR-3 (ovarian) cells) [µg/mL] | IC100 (OVCAR-3 (ovarian) cells) [µg/mL] | GI50 (786-0 (renal) cells) [µg/mL] | IC100 (786-0 (renal) cells) [µg/mL] | further results |
| --- | --- | --- | --- | --- | --- | --- | --- | --- | --- | --- | --- | --- | --- | --- | --- | --- | --- | --- | --- | --- | --- |
| COc1cccc2c1CCC1=C2C(C)COC1(C)C (stereo not drawn) [2a, 4,5,6-Tetrahydro-7-methoxy-1,4,4-trimethyl-1H-benzo[f]isochromene] | 25 (≈ 96.8 µM) | 51.3 | 25 (≈ 96.8 µM) | 64.6 | 25 (≈ 96.8 µM) | 52 | 25 (≈ 96.8 µM) | 39.1 | 14.8 (≈ 57.2 µM) | 12.6 to 31.6 (≈ 48.7 to 122 µM) | 25 (≈ 96.8 µM) | 83.5 | 3.1 (≈ 12 µM) | > 250 | 66.9 | 25 (≈ 96.8 µM) | 25 (≈ 96.8 µM) | 52.3 | 25 (≈ 96.8 µM) | 50.6 | melting point: 65 to 67 °C |
| COc1ccc2c(c1)CCC1=C2C(C)COC1(C)C (stereo not drawn) [2b, 2,4,5,6-Tetrahydro-8-methoxy-1,4,4-trimethyl-1H-benzo[f]isochromene] | 23.2 (≈ 89.8 µM) | 46.9 | 27 (≈ 105 µM) | 41.4 | 24.6 (≈ 95.2 µM) | 53.5 | 6.6 (≈ 25.5 µM) | 33 | 15.1 (≈ 58.6 µM) | 12.6 to 31.6 (≈ 48.7 to 122 µM) | 26.8 (≈ 104 µM) | 104 | 9.6 (≈ 37.2 µM) | > 250 | 54.4 | 26.1 (≈ 101 µM) | 24.5 (≈ 94.8 µM) | 56.2 | 25.5 (≈ 98.7 µM) | 44 | melting point: 89.5 to 91.3 °C |
| COc1ccc2c(c1)C1=C(CC2)C(C)(C)OCC1C (stereo not drawn) [2c, 2,4,5,6-Tetrahydro-9-methoxy-1,4,4-trimethyl-1H-benzo[f]isochromene] | 25 (≈ 96.8 µM) | 45.3 | 25 (≈ 96.8 µM) | 69.2 | 25 (≈ 96.8 µM) | 40 | 25 (≈ 96.8 µM) | 41.8 | 16.2 (≈ 62.8 µM) | 12.6 to 31.6 (≈ 48.7 to 122 µM) | 25 (≈ 96.8 µM) | 66.3 | 25 (≈ 96.8 µM) | 128 | 32.0 | 25 (≈ 96.8 µM) | 25 (≈ 96.8 µM) | 67 | 25 (≈ 96.8 µM) | 36.1 |  |
| COc1cc2c(cc1OC)C1=C(CC2)C(C)(C)OCC1C (stereo not drawn) [2d, 2,4,5,6-Tetrahydro-8,9-dimethoxy-1,4,4-trimethyl-1H-benzo[f]isochromene] | 38.8 (≈ 135 µM) | > 250 | 71.4 (≈ 248 µM) | > 250 | > 250 | > 250 | 23.1 (≈ 80.1 µM) | > 250 | > 50.1 | > 31.6 | 101 (≈ 349 µM) | > 250 | 84.6 (≈ 293 µM) | > 250 | >250 | > 250 | 193 (≈ 671 µM) | > 250 | 45.8 (≈ 159 µM) | > 250 | Cytostatic activity classified in words by NCI criteria on mean logGI50 [1]: inactive; melting point: 115 to 117 °C |
| CC1COC(C)(C)C2=C1c1cccc(O)c1CC2 (stereo not drawn) [3a, 1,4,4-Trimethyl-1,4,5,6-tetrahydro-2H-benzo[f]isochromen-7-ol] | > 250 | > 250 | > 250 | > 250 | > 250 | > 250 | > 250 | > 250 | > 209 | > 31.6 | > 250 | > 250 | > 250 | > 250 | >250 | > 250 | > 250 | > 250 | 37.3 (≈ 153 µM) | > 250 | Cytostatic activity classified in words by NCI criteria on mean logGI50 [1]: inactive; melting point: 139.2 to 140.3 °C; GI50 ([5]; Homo sapiens, NCI-H460, 48 h): > 250 µg/mL; Total growth inhibition (TGI) ([5]; NCI-H460 lung, 48 h treatment, SRB): >250 µg/mL |

— article PMC6269118, “Populene D Analogues: Design, Concise Synthesis and Antiproliferative Activity” (Molecules, 2012)
